Source: patent publication EP4800013A1, “PARG INHIBITOR” (Shanghai Qilu Pharmaceutical Research and Development …, priority 2023, dated 2025)
Where two headings read alike, the source gives them in different places.

Key:
[1] = test system: KURAMOCHI ovarian cancer xenograft model; assay: In vivo efficacy study in KURAMOCHI ovarian cancer xenograft model; conditions: for TGI (%) / Tumor volume (mm^3): PO; for Tumor volume (mm^3): Mean ± SEM
From the text: (§1) NOD SCID mice, female, SPF grade, purchased from Beijing Anikeepter Biotech Co., Ltd.
KURAMOCHI cells, purchased from JCRB.
(§2) The culture medium was changed weekly. […] Tumor cells in the logarithmic growth phase were used for in vivo implantation.
(§3) A total of 35 mice were inoculated: 35 mice for the efficacy study; 15 mice for the PK/PD study; 10 mice remaining after grouping. When the tumor volume reached approximately 150 to 200 mm^3, the mice were grouped for dosing to initiate the efficacy study. Specifically, they were divided into 7 groups, with 5 mice per group. The remaining animals were grouped for dosing when the tumor volume reached approximately 250 mm^3.
(§4) b. Treatment was initiated after grouping, with a dosing volume of 10 µL/g body weight via oral administration (PO). Animals were weighed daily before dosing and administered once daily for 21 consecutive days. Tumor diameters were measured twice weekly. c. Tumor volume (TV) was measured twice weekly to monitor changes in tumor size and growth rate. Tumor volume was calculated as: V = 1/2 × a × b^2, where a and b represent tumor length and tumor width, respectively. The growth inhibitory effect of compounds on tumor tissue was evaluated using tumor growth inhibition (TGI (%)). […] Data for both the treatment group and the negative control group were collected on the same day. d. The mice were weighed during tumor measurements. The relationship between changes in body weight and time of treatment was recorded. The survival and health status of the mice, including general conditions such as activity level and food intake during the dosing period, were also observed. […] Treatment was resumed when the body weight recovered to within 10% of baseline. […] Nutritional gel supplementation was provided during treatment discontinuation. e. At the study endpoint, the mice were euthanized.

[2] = biological target: T1, PARG (Homo sapiens, UniProt Q86W56); assay: Enzymatic inhibitory activity against PARG, HTRF assay; assay type: biochemical; conditions: HTRF; PARylated PARP1 protein as substrate; 60 minutes at room temperature; read-out: IC50 against PARG enzyme
T1 construct: made in house
T1 sequence (Q86W56 whole entry): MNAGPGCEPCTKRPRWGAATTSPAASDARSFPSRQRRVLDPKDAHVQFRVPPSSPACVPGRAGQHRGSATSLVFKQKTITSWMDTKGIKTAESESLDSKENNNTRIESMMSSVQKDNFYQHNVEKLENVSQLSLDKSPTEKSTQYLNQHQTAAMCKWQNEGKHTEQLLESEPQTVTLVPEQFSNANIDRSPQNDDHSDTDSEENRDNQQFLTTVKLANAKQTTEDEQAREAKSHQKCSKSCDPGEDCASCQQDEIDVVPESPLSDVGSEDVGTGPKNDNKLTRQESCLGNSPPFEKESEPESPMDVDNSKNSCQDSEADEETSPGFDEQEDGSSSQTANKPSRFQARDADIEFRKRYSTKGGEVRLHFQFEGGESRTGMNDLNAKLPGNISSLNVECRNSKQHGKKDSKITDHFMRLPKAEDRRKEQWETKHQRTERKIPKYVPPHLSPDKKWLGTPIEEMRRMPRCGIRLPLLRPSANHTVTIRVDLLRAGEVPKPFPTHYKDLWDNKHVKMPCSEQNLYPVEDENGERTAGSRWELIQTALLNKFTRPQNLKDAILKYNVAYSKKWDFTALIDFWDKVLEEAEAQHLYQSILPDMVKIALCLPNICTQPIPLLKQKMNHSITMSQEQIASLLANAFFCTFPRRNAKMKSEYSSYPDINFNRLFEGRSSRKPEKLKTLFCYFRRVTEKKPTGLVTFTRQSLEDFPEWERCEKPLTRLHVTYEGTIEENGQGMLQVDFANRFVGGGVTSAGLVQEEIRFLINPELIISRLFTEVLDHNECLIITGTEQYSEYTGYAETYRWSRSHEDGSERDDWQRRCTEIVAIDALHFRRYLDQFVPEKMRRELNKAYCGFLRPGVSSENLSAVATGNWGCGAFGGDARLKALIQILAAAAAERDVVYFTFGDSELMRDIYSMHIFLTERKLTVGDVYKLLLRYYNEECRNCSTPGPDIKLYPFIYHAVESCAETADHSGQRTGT
Summary of the method: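 Purified PARG pre-incubated with compounds (top 10 µM, 3- to 5-fold dilutions, duplicates) 15 min at room temperature, then PARylated PARP1 substrate added for 60 min in Tris pH 7.4 buffer with DTT, EDTA/EGTA, KCl. HTRF (His-Tb/SA-XL665) read-out; IC50 by four-parameter logistic fit, normalised to DMSO and control-inhibitor wells.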

[3] = test system: KURAMOCHI cells; assay: Inhibition of proliferation of KURAMOCHI cells (CellTiter-Glo, intracellular ATP); assay type: cell-based; conditions: 168 h, incubated for 7 days, read-out: IC50 against KURAMOCHI cells
Summary of the method: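 KURAMOCHI cells seeded at 4000/well, incubated overnight, then treated with 9-point 1:4 compound series from 10 µM (0.5% DMSO) for 7 days at 37°C, 5% CO2. Viability read by CellTiter-Glo luminescence; inhibition normalised to medium-only (100%) and DMSO (0%) controls, IC50 from variable-slope four-parameter fit.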

[4] = test system: KURAMOCHI ovarian cancer xenograft model; conditions: mouse, in vivo, po
From the text: as §1
KURAMOCHI cells, purchased from JCRB.
as §2, §3, §4

[5] = Pharmacokinetic evaluation in BALB/c nude mice (PO); assay type: in vivo; conditions: mouse, in vivo, 30 mg/kg
Protocol: Using mice as test animals, the compounds of the present disclosure were administered via intravenous bolus and oral injection. Plasma samples were collected at specific time points. Compound concentrations in plasma were determined by LC-MS/MS, and PK parameters were calculated to characterize the pharmacokinetic behavior of the compounds of the present disclosure in plasma.
BALB/c nude mice, female, supplied by Jiangsu GemPharmatech Co., Ltd.
Dosing regimen for BALB/c nude mice: The PO (oral) experimental group consisted of 3 mice, which were administered at a dose of 30 mg/kg and a volume of 10 mL/kg. The dosing vehicle was 5% (v/v) DMSO/10% (v/v) Solutol/85% (v/v) saline.
Following administration, 0.025 mL of blood was collected via venipuncture at the following time points: 0.0833 (IV), 0.25, 0.5, 1, 2, 4, 8, and 24 hours. Blood samples were collected into EDTA-K2 tubes and centrifuged at 4°C and 2000 g for 10 minutes to separate plasma, which was stored at -80°C.
Mouse plasma processing: • 1) 15 µL of plasma was mixed with 200 µL of acetonitrile for protein precipitation. The mixture was vortexed and centrifuged for 15 minutes. • 2) The supernatant after processing was diluted with water and analyzed by LC/MS/MS to determine the concentration of the test compound.
Pharmacokinetic parameters were calculated using WinNonlin 6.1. Specifically, Cmax represents maximum plasma concentration, CL represents clearance, Vss represents volume of distribution at steady state, T1/2 represents terminal elimination half-life, MRTInf represents mean residence time, AUC represents area under the plasma concentration-time curve, and F represents bioavailability. Table 18: Pharmacokinetic parameters of the compounds of the present disclosure in CD-1 mice

[6] = KURAMOCHI xenograft, oral administration

Compound	IC50 [2] [nM]	IC50 [3] [nM]	further results
C[C@H]1CN(c2cc(S(=O)(=O)NC3(C)CC3)cc3c2n2ncnc2n3-c2nnc(C(F)F)s2)C[C@H](C)N1 [Compound 065M]	1.4	3	tolerability in mice (in words) [1, 6]: good tolerability; tumor growth inhibition (in words) [1, 6]: significantly inhibited tumor growth; TGI (%) ([1]; 30 mg/kg, QD × 16 days): 127%; Tumor volume (mm^3) ([1]; 30 mg/kg, QD × 16 days): 62 ± 6 mm^3
C[C@H]1CN(c2cc(S(=O)(=O)NC3(C)CC3)cc3c2nc([C@@H]2CCCO2)n3-c2nnc(C(F)F)s2)C[C@H](C)N1 [Compound 077B2]	1.6	3	tumor growth inhibition (in words) [1, 6]: significantly inhibited tumor growth; TGI (%) ([1]; 30 mg/kg, BID × 16 days): 127%; Tumor volume (mm^3) ([1]; 30 mg/kg, BID × 16 days): 61 ± 9 mm^3; TGI (%) ([1]; 100 mg/kg, QD × 16 days): 127%; Tumor volume (mm^3) ([1]; 100 mg/kg, QD × 16 days): 57 ± 10 mm^3; tolerability in mice (in words) [4]: good tolerability
C[C@H]1CN(c2cc(S(=O)(=O)NC3(C)CC3)cn3c(-c4nnc(C(F)F)s4)c([C@@H]4CCCO4)nc23)C[C@H](C)N1 [Compound 080B2]	0.4	0.6	AUC [5]: 8.35 µM·h; Cmax [5]: 1870 nM; MRT inf [5]: 3.27 h; half-life [5]: 2.45 h
CC1(NS(=O)(=O)c2cc(N3CCNCC3)c3ncn(-c4nnc(C(F)F)s4)c3c2)CC1 [Compound B001]	44.7	53	–
CC(C)C(=O)N1CCN(c2cc(S(=O)(=O)NC3(C)CC3)cc3c2ncn3-c2nnc(C(F)F)s2)CC1 [Compound B002]	11.6	16	–
CN(C)C(=O)N1CCN(c2cc(S(=O)(=O)NC3(C)CC3)cc3c2ncn3-c2nnc(C(F)F)s2)CC1 [Compound B003]	10.2	16	–
CC(C)C(=O)N1CCN(c2cc(S(=O)(=O)NC3(C#N)CC3)cc3c2ncn3-c2nnc(C(F)F)s2)CC1 [Compound B010]	31.4	59	–
CN(C)C(=O)N1CCN(c2cc(S(=O)(=O)NC3(C#N)CC3)cc3c2ncn3-c2nnc(C(F)F)s2)CC1 [Compound B011]	9.9	32	–
N#CC1(NS(=O)(=O)c2cc(N3CCN(C(=O)N4CCCC4)CC3)c3ncn(-c4nnc(C(F)F)s4)c3c2)CC1 [Compound B013]	21.3	53	–
CC(C)(F)C(=O)N1CCN(c2cc(S(=O)(=O)NC3(C#N)CC3)cc3c2ncn3-c2nnc(C(F)F)s2)CC1 [Compound B014]	31.4	43	–
C[C@H]1CN(c2cc(S(=O)(=O)NC3(C#N)CC3)cc3c2ncn3-c2nnc(C(F)F)s2)C[C@H](C)N1 [Compound B016]	21.2	74	–
C[C@H]1CN(c2cc(S(=O)(=O)NC3(C#N)CC3)cc3c2ncn3-c2nnc(C(F)F)s2)C[C@H](C)N1C(=O)N(C)C [Compound B017]	31.5	20	–
COc1nc2c(N3CCN(C(=O)N(C)C)CC3)cc(S(=O)(=O)NC3(C#N)CC3)cc2n1-c1nnc(C(F)F)s1 [Compound B019]	6.3	19	–
COc1nc2c(N3CCN(C(=O)C(C)C)CC3)cc(S(=O)(=O)NC3(C#N)CC3)cc2n1-c1nnc(C(F)F)s1 [Compound B020]	19.8	59	–
Cc1nc2c(N3CCN(C(=O)N(C)C)CC3)cc(S(=O)(=O)NC3(C#N)CC3)cc2n1-c1nnc(C(F)F)s1 [Compound B021]	25.1	51	–
CN(C)C(=O)N1CCN(c2cc(S(=O)(=O)NC3(C)CC3)cc3c2nnn3-c2nnc(C(F)F)s2)CC1 [Compound C002]	48.2	25	–
